Experimental data published in the NIST ThermoML archive (doi:10.1016/j.fluid.2015.10.047).

Columns and labels:
[1] = Molar enthalpy of transition or fusion; conditions: Crystal; DSC
[2] = Crystal; DTA
[3] = molar heat capacity at constant pressure; conditions: 101.33 kPa, Large sample (1 g) DSC

CO[C@H]1O[C@H](CO)[C@@H](O)[C@H](O)[C@H]1O [methyl-α-D-glucopyranoside]
Conditions | Molar enthalpy of transition or fusion [kcal/mol] | Normal melting temperature [°C]
[1] | 6.7 | –
[2] | – | 169.18

[3]
Conditions | molar heat capacity at constant pressure [J/K/mol]
298.15 K, Crystal | 291.48
303.15 K, Crystal | 294.68
308.15 K, Crystal | 297.16
313.15 K, Crystal | 300.15
318.15 K, Crystal | 302.5
323.15 K, Crystal | 305.37
328.15 K, Crystal | 308.34
333.15 K, Crystal | 311.81
338.15 K, Crystal | 315.04
343.13 K, Crystal | 317.77
348.15 K, Crystal | 320.54
353.15 K, Crystal | 323.46
358.15 K, Crystal | 327.84
363.15 K, Crystal | 331.47
368.15 K, Crystal | 334
373.15 K, Crystal | 336.83
378.15 K, Crystal | 339.69
383.15 K, Crystal | 342.52
388.15 K, Crystal | 345.56
393.15 K, Crystal | 348.77
398.15 K, Crystal | 352.33
403.15 K, Crystal | 356.35
408.15 K, Crystal | 360.93
413.15 K, Crystal | 366.26
418.15 K, Crystal | 369.54
423.15 K, Crystal | 372.62
428.15 K, Crystal | 376.07
433.15 K, Crystal | 379.37
453.15 K, Liquid | 510.58
458.15 K, Liquid | 511.8
463.15 K, Liquid | 513
468.15 K, Liquid | 514.17
473.15 K, Liquid | 515.44
478.15 K, Liquid | 516.62
483.15 K, Liquid | 517.93
488.15 K, Liquid | 519.22
493.15 K, Liquid | 520.14
498.15 K, Liquid | 521.17
503.15 K, Liquid | 522.4
508.15 K, Liquid | 523.64
513.15 K, Liquid | 524.87
